Source: article PMC8506144 (Phytochemistry, 2021)
Like-named read-outs stand apart in the source and are kept apart here.

Legend:
[1] = target: T1, SARS-CoV-2 PLpro (Severe acute respiratory syndrome coronavirus 2, UniProt P0DTD1); experiment: biochemical; format: biochemical
[2] = target: T1, SARS-CoV-2 PLpro; experiment: Pro-ISG15 cleavage assay; format: biochemical; conditions: for inhibition at 20 µM / inhibition at 10 µM: read-out: Inhibition rate of PLpro-mediated deISGylation; for Inhibition rate of PLpro-mediated deISGylation: 20 μM compound, 50 nM PLpro, 350 nM pro-ISG15, 10 min, 37 °C
[3] = IC50 (50% inhibition of PLpro anti-proteolytic activity), 50 nM PLpro, 50 μM Z-RLRGG-AMC, 10 mM DTT, pH 8.0, 37 °C, mean ± SD

SMILES	IC50 [1, 3] [µM]	Ki [1] [µM]	inhibition at 20 µM [2] [%]	inhibition at 10 µM [2] [%]	Inhibition rate of PLpro-mediated deISGylation [2]	Inhibition mode (Dixon plot) [1]	Fold more potent anti-proteolytic activity than di-methylated counterpart 8 ([1]; ratio of IC50 values, 7 vs 8) [fold]	IC50 ([1]; read-out: IC50 (50% inhibition of PLpro anti-proteolytic activity), pH 8) [µM]
COc1ccc(-c2cc(=O)c3c(O)cc(O)cc3o2)cc1 [Acacetin, acacetin, reference compound]	91.2 ± 11.3							
O=c1cc(-c2ccc(O)cc2)oc2cc(O)cc(O)c12 [Apigenin, apigenin, reference compound]	75.7 ± 6.4							
O=c1cc(-c2ccc(O)c(-c3c(O)cc(O)c4c(=O)cc(-c5ccc(O)cc5)oc34)c2)oc2cc(O)cc(O)c12 [Compound 1, amentoflavone]	13 ± 1.2	9.1 ± 0.7	48.1					
COc1ccc(-c2cc(=O)c3c(O)cc(O)c(-c4cc(-c5cc(=O)c6c(O)cc(O)cc6o5)ccc4O)c3o2)cc1 [Compound 2, podocarpusflavone A]	43.2 ± 2.9	36.5 ± 4.2	64.9 to 74.8	53.2 to 71.1				
COc1cc(O)c2c(=O)cc(-c3ccc(OC)c(-c4c(O)cc(O)c5c(=O)cc(-c6ccc(O)cc6)oc45)c3)oc2c1 [Compound 3, ginkgetin]	29.8 ± 1.5	17.7 ± 1.1		53.2 to 71.1	near complete inhibition			
COc1ccc(-c2cc(=O)c3c(O)cc(O)c(-c4cc(-c5cc(=O)c6c(O)cc(O)cc6o5)ccc4OC)c3o2)cc1 [Compound 4, isoginkgetin]	31.2 ± 3.4	26.5 ± 2.8		53.2 to 71.1	near complete inhibition			
O=C1c2c(O)cc(O)cc2O[C@H](c2ccc(O)cc2)[C@H]1c1c(O)cc(O)c2c(=O)cc(-c3ccc(O)c(O)c3)oc12 [Compound 6, morelloflavone]	36.4 ± 4.8	30.7 ± 2.9	32.3 to 34.1			non-competitive inhibition		
O=c1cc(-c2ccc(Oc3c(O)cc4oc(-c5ccc(O)cc5)cc(=O)c4c3O)cc2)oc2cc(O)cc(O)c12 [Compound 7, hinokiflavone]	9.5 ± 1.2	7.8 ± 0.5		65.6 to 98	near complete inhibition		2.8	
CC(C)=CCc1cc2c(cc1O)oc(=O)c1c3ccc(O)cc3oc21 [Psoralidin, reference compound]								27.8 ± 2.2
